IC50, inhibition and estrogenicity data for nine molecules are collected here from article PMC6173509, “C-3- and C-4-Substituted Bicyclic Coumarin Sulfamates as Potent Steroid Sulfatase Inhibitors” (ACS Omega, 2018).

The first data set concerns the target T1, steroid sulfatase (STS) (Homo sapiens, UniProt P08842).
T1 sequence (P08842 22-583): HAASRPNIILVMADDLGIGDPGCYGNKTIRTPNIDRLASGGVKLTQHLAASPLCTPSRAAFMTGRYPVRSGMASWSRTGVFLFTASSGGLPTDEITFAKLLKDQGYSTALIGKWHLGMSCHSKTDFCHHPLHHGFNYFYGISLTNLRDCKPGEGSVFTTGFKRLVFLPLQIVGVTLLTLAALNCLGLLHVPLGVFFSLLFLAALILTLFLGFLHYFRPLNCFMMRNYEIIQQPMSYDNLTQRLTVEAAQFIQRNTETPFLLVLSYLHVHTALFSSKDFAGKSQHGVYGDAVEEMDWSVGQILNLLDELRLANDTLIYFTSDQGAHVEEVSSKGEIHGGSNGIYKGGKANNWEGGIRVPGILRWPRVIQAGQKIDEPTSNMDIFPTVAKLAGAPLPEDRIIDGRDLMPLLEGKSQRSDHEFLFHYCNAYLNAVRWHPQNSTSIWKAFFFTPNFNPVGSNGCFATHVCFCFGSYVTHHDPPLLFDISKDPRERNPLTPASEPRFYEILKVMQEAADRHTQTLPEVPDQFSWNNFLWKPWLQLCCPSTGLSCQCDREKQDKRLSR
Kind of data set: STS inhibition in intact MCF-7 breast cancer cells. The conditions noted are these: 3 nM E1S. On the set-up: endogenous in cells; host or cells: MCF-7 breast cancer cells. It counts as cell-based.
`Cc1c(-c2ccccc2)c(=O)oc2cc(OS(N)(=O)=O)ccc12` [compound 40, 4-Methyl-3-phenylcoumarin-7-O-sulfamate] had an IC50 of 0.025 µM.

`Cc1c(CCc2ccccc2)c(=O)oc2cc(OS(N)(=O)=O)ccc12` [compound 42, 4-Methyl-3-(2-phenylethyl)coumarin-7-O-sulfamate] yielded an IC50 of 0.0011 µM. Compared with the last molecule, the IC50 is about 23-fold lower.

The data set is the same for the next values; noted with them: MCF7, read-out: % Inhibition of STS Activity in Intact MCF-7 Breast Cancer Cells at 0.01 μM.
Take `Cc1c(-c2ccccc2)c(=O)oc2cc(OS(N)(=O)=O)ccc12` [compound 40, 4-Methyl-3-phenylcoumarin-7-O-sulfamate]: the inhibition at 0.01 µM amounted to 32%.

As to `Cc1c(Cc2ccccc2)c(=O)oc2cc(OS(N)(=O)=O)ccc12` [compound 41, 3-Benzyl-4-methylcoumarin-7-O-sulfamate], the inhibition at 0.01 µM was 85%.

As to `Cc1c(CCc2ccccc2)c(=O)oc2cc(OS(N)(=O)=O)ccc12` [compound 42, 4-Methyl-3-(2-phenylethyl)coumarin-7-O-sulfamate], the inhibition at 0.01 µM is 93%.

Still in this data set, the particulars now being: MCF7, read-out: % Inhibition of STS Activity in Intact MCF-7 Breast Cancer Cells at 0.1 μM.
As for `CCCCCc1c(C)c2ccc(OS(N)(=O)=O)cc2oc1=O` [compound 28, 4-Methyl-3-pentylcoumarin-7-O-sulfamate], the inhibition at 0.1 µM stood at 97%.

As to `CCCCCCc1c(C)c2ccc(OS(N)(=O)=O)cc2oc1=O` [compound 29, 3-Hexyl-4-methylcoumarin-7-O-sulfamate], the inhibition at 0.1 µM worked out at 99%.

For `CCCCCCCc1c(C)c2ccc(OS(N)(=O)=O)cc2oc1=O` [compound 30, 3-Heptyl-4-methylcoumarin-7-O-sulfamate], the inhibition at 0.1 µM is 99%.

Take `CCCCCCCCc1c(C)c2ccc(OS(N)(=O)=O)cc2oc1=O` [compound 31, 4-Methyl-3-octylcoumarin-7-O-sulfamate]: the inhibition at 0.1 µM came out at 99%.

Take `Cc1c(-c2ccccc2)c(=O)oc2cc(OS(N)(=O)=O)ccc12` [compound 40, 4-Methyl-3-phenylcoumarin-7-O-sulfamate]: the inhibition at 0.1 µM amounted to 75%.

`Cc1c(Cc2ccccc2)c(=O)oc2cc(OS(N)(=O)=O)ccc12` [compound 41, 3-Benzyl-4-methylcoumarin-7-O-sulfamate]: the inhibition at 0.1 µM was determined as 91%.

As for `Cc1c(CCc2ccccc2)c(=O)oc2cc(OS(N)(=O)=O)ccc12` [compound 42, 4-Methyl-3-(2-phenylethyl)coumarin-7-O-sulfamate], the inhibition at 0.1 µM came to 98%.

In the case of `Cc1c(CCCc2ccccc2)c(=O)oc2cc(OS(N)(=O)=O)ccc12` [compound 43, 4-Methyl-3-[3-phenylpropyl]coumarin-7-O-sulfamate], the inhibition at 0.1 µM stood at 87%.

The same data set, now with this note: MCF7, read-out: % Inhibition of STS Activity in Intact MCF-7 Breast Cancer Cells at 1 μM.
Turning to `CCCCCc1c(C)c2ccc(OS(N)(=O)=O)cc2oc1=O` [compound 28, 4-Methyl-3-pentylcoumarin-7-O-sulfamate], the inhibition at 1 µM was found to be 99%.

For the molecule `CCCCCCc1c(C)c2ccc(OS(N)(=O)=O)cc2oc1=O` [compound 29, 3-Hexyl-4-methylcoumarin-7-O-sulfamate], the inhibition at 1 µM was determined as 100%.

Regarding `CCCCCCCc1c(C)c2ccc(OS(N)(=O)=O)cc2oc1=O` [compound 30, 3-Heptyl-4-methylcoumarin-7-O-sulfamate], the inhibition at 1 µM stood at 100%.

As for `CCCCCCCCc1c(C)c2ccc(OS(N)(=O)=O)cc2oc1=O` [compound 31, 4-Methyl-3-octylcoumarin-7-O-sulfamate], the inhibition at 1 µM turned out to be 100%.

As for `Cc1c(Cc2ccccc2)c(=O)oc2cc(OS(N)(=O)=O)ccc12` [compound 41, 3-Benzyl-4-methylcoumarin-7-O-sulfamate], the inhibition at 1 µM was 94%.

As to `Cc1c(CCc2ccccc2)c(=O)oc2cc(OS(N)(=O)=O)ccc12` [compound 42, 4-Methyl-3-(2-phenylethyl)coumarin-7-O-sulfamate], the inhibition at 1 µM came to 99%.

As for `Cc1c(CCCc2ccccc2)c(=O)oc2cc(OS(N)(=O)=O)ccc12` [compound 43, 4-Methyl-3-[3-phenylpropyl]coumarin-7-O-sulfamate], the inhibition at 1 µM was 99%.

Still in this data set, the particulars now being: MCF7, read-out: % Inhibition of STS Activity in Intact MCF-7 Breast Cancer Cells at 10 μM.
On to `CCCCCc1c(C)c2ccc(OS(N)(=O)=O)cc2oc1=O` [compound 28, 4-Methyl-3-pentylcoumarin-7-O-sulfamate], for which the inhibition at 10 µM was found to be 100%.

Take `CCCCCCc1c(C)c2ccc(OS(N)(=O)=O)cc2oc1=O` [compound 29, 3-Hexyl-4-methylcoumarin-7-O-sulfamate]: the inhibition at 10 µM worked out at 100%.

Take `CCCCCCCc1c(C)c2ccc(OS(N)(=O)=O)cc2oc1=O` [compound 30, 3-Heptyl-4-methylcoumarin-7-O-sulfamate]: the inhibition at 10 µM came to 100%.

With `CCCCCCCCc1c(C)c2ccc(OS(N)(=O)=O)cc2oc1=O` [compound 31, 4-Methyl-3-octylcoumarin-7-O-sulfamate], the inhibition at 10 µM was 100%.

In the case of `Cc1c(Cc2ccccc2)c(=O)oc2cc(OS(N)(=O)=O)ccc12` [compound 41, 3-Benzyl-4-methylcoumarin-7-O-sulfamate], the inhibition at 10 µM was found to be 97%.

For `Cc1c(CCCc2ccccc2)c(=O)oc2cc(OS(N)(=O)=O)ccc12` [compound 43, 4-Methyl-3-[3-phenylpropyl]coumarin-7-O-sulfamate], the inhibition at 10 µM was 100%.

Test system in another data set: not given
Assay: not given
On the set-up: method as in PMID 18288656, PMID 18288656, PMID 24604234. The conditions noted are these: rats; ref 12a, 12b, 14; cited from earlier work.
For the molecule `C[C@]12CC[C@@H]3c4ccc(OS(N)(=O)=O)cc4CC[C@H]3[C@@H]1CCC2=O` [compound 1, estrone-3-O-sulfamate], the estrogenicity result is given as “highly estrogenic”.

The target in the next data set is T1, steroid sulfatase (STS). Kind of data set: STS inhibition in placental microsomes. The conditions noted are these: 0.01 μM inhibitor; 20 μM E1S. It is filed as biochemical. On the set-up: a placental microsomal preparation from a sulfatase-positive human placenta from a normal term pregnancy; from tissue; host or cells: human placenta (microsomal preparation).
Molecule `CCCCCc1c(C)c2ccc(OS(N)(=O)=O)cc2oc1=O` [compound 28, 4-Methyl-3-pentylcoumarin-7-O-sulfamate] displayed an inhibition at 0.01 µM of 41%.

As to `CCCCCCc1c(C)c2ccc(OS(N)(=O)=O)cc2oc1=O` [compound 29, 3-Hexyl-4-methylcoumarin-7-O-sulfamate], the inhibition at 0.01 µM was 13%.

The molecule `CCCCCCCc1c(C)c2ccc(OS(N)(=O)=O)cc2oc1=O` [compound 30, 3-Heptyl-4-methylcoumarin-7-O-sulfamate] showed an inhibition at 0.01 µM of 23%.

`CCCCCCCCc1c(C)c2ccc(OS(N)(=O)=O)cc2oc1=O` [compound 31, 4-Methyl-3-octylcoumarin-7-O-sulfamate] came in with an inhibition at 0.01 µM of 21%.

Take `Cc1c(-c2ccccc2)c(=O)oc2cc(OS(N)(=O)=O)ccc12` [compound 40, 4-Methyl-3-phenylcoumarin-7-O-sulfamate]: the inhibition at 0.01 µM is 8%.

`Cc1c(Cc2ccccc2)c(=O)oc2cc(OS(N)(=O)=O)ccc12` [compound 41, 3-Benzyl-4-methylcoumarin-7-O-sulfamate]: the inhibition at 0.01 µM turned out to be 53%.

In the case of `Cc1c(CCc2ccccc2)c(=O)oc2cc(OS(N)(=O)=O)ccc12` [compound 42, 4-Methyl-3-(2-phenylethyl)coumarin-7-O-sulfamate], the inhibition at 0.01 µM was found to be 45%.

The same data set, now with this note: 0.1 μM inhibitor; 20 μM E1S.
`CCCCCc1c(C)c2ccc(OS(N)(=O)=O)cc2oc1=O` [compound 28, 4-Methyl-3-pentylcoumarin-7-O-sulfamate]: the inhibition at 0.1 µM was found to be 94%.

Molecule `CCCCCCc1c(C)c2ccc(OS(N)(=O)=O)cc2oc1=O` [compound 29, 3-Hexyl-4-methylcoumarin-7-O-sulfamate] came in with an inhibition at 0.1 µM of 88%.

As to `CCCCCCCc1c(C)c2ccc(OS(N)(=O)=O)cc2oc1=O` [compound 30, 3-Heptyl-4-methylcoumarin-7-O-sulfamate], 0.1 µM produced 65% inhibition.

In turn, `CCCCCCCCc1c(C)c2ccc(OS(N)(=O)=O)cc2oc1=O` [compound 31, 4-Methyl-3-octylcoumarin-7-O-sulfamate] had an inhibition at 0.1 µM of 71%.

Take `Cc1c(-c2ccccc2)c(=O)oc2cc(OS(N)(=O)=O)ccc12` [compound 40, 4-Methyl-3-phenylcoumarin-7-O-sulfamate]: the inhibition at 0.1 µM was 65%.

`Cc1c(Cc2ccccc2)c(=O)oc2cc(OS(N)(=O)=O)ccc12` [compound 41, 3-Benzyl-4-methylcoumarin-7-O-sulfamate] came in with an inhibition at 0.1 µM of 94%.

For `Cc1c(CCc2ccccc2)c(=O)oc2cc(OS(N)(=O)=O)ccc12` [compound 42, 4-Methyl-3-(2-phenylethyl)coumarin-7-O-sulfamate], the inhibition at 0.1 µM stood at 91%.

`Cc1c(CCCc2ccccc2)c(=O)oc2cc(OS(N)(=O)=O)ccc12` [compound 43, 4-Methyl-3-[3-phenylpropyl]coumarin-7-O-sulfamate] returned an inhibition at 0.1 µM of 47%.

Still in this data set, the particulars now being: 1 μM inhibitor; 20 μM E1S.
Take `CCCCCc1c(C)c2ccc(OS(N)(=O)=O)cc2oc1=O` [compound 28, 4-Methyl-3-pentylcoumarin-7-O-sulfamate]: 1 µM produced 99% inhibition.

`CCCCCCc1c(C)c2ccc(OS(N)(=O)=O)cc2oc1=O` [compound 29, 3-Hexyl-4-methylcoumarin-7-O-sulfamate] registered an inhibition at 1 µM of 99%.

As to `CCCCCCCc1c(C)c2ccc(OS(N)(=O)=O)cc2oc1=O` [compound 30, 3-Heptyl-4-methylcoumarin-7-O-sulfamate], the inhibition at 1 µM is 97%.

In turn, `CCCCCCCCc1c(C)c2ccc(OS(N)(=O)=O)cc2oc1=O` [compound 31, 4-Methyl-3-octylcoumarin-7-O-sulfamate] yielded an inhibition at 1 µM of 98%.

For `Cc1c(-c2ccccc2)c(=O)oc2cc(OS(N)(=O)=O)ccc12` [compound 40, 4-Methyl-3-phenylcoumarin-7-O-sulfamate], the inhibition at 1 µM stood at 95%.

Turning to `Cc1c(Cc2ccccc2)c(=O)oc2cc(OS(N)(=O)=O)ccc12` [compound 41, 3-Benzyl-4-methylcoumarin-7-O-sulfamate], the inhibition at 1 µM was determined as 99%.

In turn, `Cc1c(CCc2ccccc2)c(=O)oc2cc(OS(N)(=O)=O)ccc12` [compound 42, 4-Methyl-3-(2-phenylethyl)coumarin-7-O-sulfamate] displayed an inhibition at 1 µM of 99%.

Molecule `Cc1c(CCCc2ccccc2)c(=O)oc2cc(OS(N)(=O)=O)ccc12` [compound 43, 4-Methyl-3-[3-phenylpropyl]coumarin-7-O-sulfamate] showed an inhibition at 1 µM of 99%.

Staying with this data set, now noted: 10 μM inhibitor; 20 μM E1S.
Take `CCCCCc1c(C)c2ccc(OS(N)(=O)=O)cc2oc1=O` [compound 28, 4-Methyl-3-pentylcoumarin-7-O-sulfamate]: the inhibition at 10 µM came to 100%.

As for `CCCCCCc1c(C)c2ccc(OS(N)(=O)=O)cc2oc1=O` [compound 29, 3-Hexyl-4-methylcoumarin-7-O-sulfamate], 10 µM produced 99% inhibition.

The molecule `CCCCCCCc1c(C)c2ccc(OS(N)(=O)=O)cc2oc1=O` [compound 30, 3-Heptyl-4-methylcoumarin-7-O-sulfamate] came in with an inhibition at 10 µM of 99%.

Consider `CCCCCCCCc1c(C)c2ccc(OS(N)(=O)=O)cc2oc1=O` [compound 31, 4-Methyl-3-octylcoumarin-7-O-sulfamate], for which the inhibition at 10 µM is 99%.

Take `Cc1c(-c2ccccc2)c(=O)oc2cc(OS(N)(=O)=O)ccc12` [compound 40, 4-Methyl-3-phenylcoumarin-7-O-sulfamate]: the inhibition at 10 µM amounted to 99%.

The molecule `Cc1c(CCc2ccccc2)c(=O)oc2cc(OS(N)(=O)=O)ccc12` [compound 42, 4-Methyl-3-(2-phenylethyl)coumarin-7-O-sulfamate] returned an inhibition at 10 µM of 100%.

The same data set, now with this note: 20 μM E1S.
Molecule `CCCCCc1c(C)c2ccc(OS(N)(=O)=O)cc2oc1=O` [compound 28, 4-Methyl-3-pentylcoumarin-7-O-sulfamate] had a half-maximal inhibitory concentration (IC50) of 0.012 µM.

Molecule `Cc1c(-c2ccccc2)c(=O)oc2cc(OS(N)(=O)=O)ccc12` [compound 40, 4-Methyl-3-phenylcoumarin-7-O-sulfamate] gave an IC50 of 0.054 µM. This IC50 is about 4.5-fold higher than that of the molecule before.

Regarding `Cc1c(CCc2ccccc2)c(=O)oc2cc(OS(N)(=O)=O)ccc12` [compound 42, 4-Methyl-3-(2-phenylethyl)coumarin-7-O-sulfamate], the IC50 was 0.033 µM.
